Source: the NIST ThermoML archive (doi:10.1021/je060271a)

Conditions: 343.14 K, Liquid, Vibrating tube method

CCCC(=O)OCC(COC(=O)CCC)(COC(=O)CCC)COC(=O)CCC [pentaerythritol tetrabutyrate]
Conditions | mass density [kg/m3]
773.4 kPa | 1008.6
794.9 kPa | 1008.7
818 kPa | 1008.6
837.8 kPa | 1008.5
863.2 kPa | 1008.6
890.1 kPa | 1008.8
913.7 kPa | 1008.7
943.4 kPa | 1008.7
969.3 kPa | 1008.9
1002.1 kPa | 1008.8
1036.5 kPa | 1008.8
1072.5 kPa | 1008.9
1104.2 kPa | 1008.8
1144 kPa | 1008.9
1187.1 kPa | 1008.9
1225.3 kPa | 1009
1274.2 kPa | 1009
1324.7 kPa | 1009
1369.5 kPa | 1009.1
1428.4 kPa | 1009.2
1489.8 kPa | 1009.2
1539.7 kPa | 1009.3
1615.7 kPa | 1009.3
1656.6 kPa | 1009.4
1676.8 kPa | 1009.3
1697.6 kPa | 1009.4
1715.3 kPa | 1009.4
1736.3 kPa | 1009.5
1758.3 kPa | 1009.4
1780.4 kPa | 1009.4
1799.6 kPa | 1009.4
1823.1 kPa | 1009.5
1842.9 kPa | 1009.5
1866.6 kPa | 1009.7
1891.8 kPa | 1009.5
1912.6 kPa | 1009.6
1937.9 kPa | 1009.6
1964.7 kPa | 1009.5
1987.2 kPa | 1009.6
2014.1 kPa | 1009.7
2042.2 kPa | 1009.7
2065.8 kPa | 1009.6
2094.8 kPa | 1009.6
2125.5 kPa | 1009.8
2150.1 kPa | 1009.9
2180.8 kPa | 1009.8
2213.3 kPa | 1009.7
2247.3 kPa | 1009.8
2275.2 kPa | 1009.8
2308 kPa | 1009.8
2336.8 kPa | 1009.9
2371.5 kPa | 1009.8
2407 kPa | 1009.9
2443.3 kPa | 1009.9
2474.7 kPa | 1010
2513.3 kPa | 1010.1
2553.2 kPa | 1010
2587.6 kPa | 1010.1
2629.4 kPa | 1010
2672.7 kPa | 1009.9
2711.2 kPa | 1010.3
2794.1 kPa | 1010.3
2887.4 kPa | 1010.4
2936.4 kPa | 1010.4
2979.8 kPa | 1010.4
3032.3 kPa | 1010.4
3076.5 kPa | 1010.5
3130.6 kPa | 1010.4
3186.2 kPa | 1010.6
3242.9 kPa | 1010.6
3291.4 kPa | 1010.7
3352.4 kPa | 1010.6
3413.6 kPa | 1010.6
3465.5 kPa | 1010.7
3526.7 kPa | 1010.8
3578 kPa | 1010.8
3651.6 kPa | 1011
3705.3 kPa | 1011
3789.3 kPa | 1010.9
3822.9 kPa | 1011.1
3911.1 kPa | 1011.1
3990.2 kPa | 1011.2
4072.1 kPa | 1011.2
4144 kPa | 1011.3
4183.8 kPa | 1011.4
4214.1 kPa | 1011.4
4417.6 kPa | 1011.4
4449.7 kPa | 1011.6
4486.8 kPa | 1011.6
4507.9 kPa | 1011.5
4727.5 kPa | 1011.7
5057.9 kPa | 1012.1
5072.9 kPa | 1012.3
5076 kPa | 1012
5110.6 kPa | 1012.1
5117 kPa | 1012.1
5126.9 kPa | 1012.1
5150.9 kPa | 1012.2
5159.4 kPa | 1012.3
5175.5 kPa | 1012.1
5176 kPa | 1012.2
5178.4 kPa | 1012.2
5180.5 kPa | 1012.1
5180.7 kPa | 1012
5182.4 kPa | 1012.2
5183.8 kPa | 1012.3
5184.3 kPa | 1012.1
5185 kPa | 1012.1
5185.2 kPa | 1012.1
5185.5 kPa | 1012.2
5186.2 kPa | 1012.2
5187.3 kPa | 1012.1
5188.5 kPa | 1012.1
5189 kPa | 1012.2
5189.9 kPa | 1012.3
5190.4 kPa | 1012.1
5205.3 kPa | 1012.2
5219.3 kPa | 1012.2
5228.9 kPa | 1012.3
5236 kPa | 1012.2
5238.3 kPa | 1012.3
5248 kPa | 1012.2
5250.1 kPa | 1012.2
5252.5 kPa | 1012.2
5253.9 kPa | 1012.3
5256.1 kPa | 1012.2
5266.1 kPa | 1012.1
5282.2 kPa | 1012.2
5294.5 kPa | 1012.3
5310.3 kPa | 1012.2
5338.3 kPa | 1012.2
5338.4 kPa | 1012.1
5368.9 kPa | 1012.1
5399.8 kPa | 1012.4
5401.2 kPa | 1012.4
5439.1 kPa | 1012.3
5471.1 kPa | 1012.4
5509.5 kPa | 1012.4
5540.4 kPa | 1012.4
5575.9 kPa | 1012.5
5603.9 kPa | 1012.4
5635.2 kPa | 1012.6
5666.5 kPa | 1012.5
5693.6 kPa | 1012.5
5727 kPa | 1012.6
5754.8 kPa | 1012.6
5789.8 kPa | 1012.7
5820.2 kPa | 1012.7
5848.2 kPa | 1012.7
5882.8 kPa | 1012.5
5917.3 kPa | 1012.8
5983 kPa | 1012.8
6117.5 kPa | 1013
6146.4 kPa | 1012.8
6179.9 kPa | 1012.9
6208.2 kPa | 1012.9
6243.3 kPa | 1013
6271.8 kPa | 1012.9
6306.4 kPa | 1012.9
6341.3 kPa | 1013
6370.3 kPa | 1013.1
6406.6 kPa | 1013
6437.2 kPa | 1013.1
6473.6 kPa | 1013.1
6511 kPa | 1013.2
6542.8 kPa | 1013.3
6581.3 kPa | 1013.2
6611.2 kPa | 1013.2
6645.7 kPa | 1013.4
6673.9 kPa | 1013.3
6707.9 kPa | 1013.3
6736.2 kPa | 1013.4
6771.5 kPa | 1013.3
6800.7 kPa | 1013.3
6836.3 kPa | 1013.4
6866 kPa | 1013.4
6902.9 kPa | 1013.4
6934 kPa | 1013.6
6971 kPa | 1013.5
7008.4 kPa | 1013.5
7168 kPa | 1013.6
7200.4 kPa | 1013.7
7227.9 kPa | 1013.7
7261.2 kPa | 1013.7
7289.3 kPa | 1013.8
7323.9 kPa | 1013.9
7352.7 kPa | 1013.8
7387.4 kPa | 1014
7416.1 kPa | 1013.9
7450.6 kPa | 1013.8
7480.1 kPa | 1014
7515.7 kPa | 1014
7551.4 kPa | 1013.9
7581.6 kPa | 1013.9
7618.5 kPa | 1014
7649.6 kPa | 1014
7686.9 kPa | 1014
7718.3 kPa | 1014.2
7756.1 kPa | 1014.1
7788.3 kPa | 1014.2
7827 kPa | 1014.2
7866.3 kPa | 1014.2
7899.3 kPa | 1014.2
7932.8 kPa | 1014.4
7972.8 kPa | 1014.4
8013.9 kPa | 1014.3
8090.3 kPa | 1014.4
8125.6 kPa | 1014.5
8169.1 kPa | 1014.4
8205.4 kPa | 1014.5
8246 kPa | 1014.4
8283.5 kPa | 1014.5
8312 kPa | 1014.5
8346.8 kPa | 1014.6
8382.7 kPa | 1014.7
8723.4 kPa | 1014.9
8760.5 kPa | 1014.7
8798.7 kPa | 1014.8
8838.7 kPa | 1014.9
8871 kPa | 1015
8910.3 kPa | 1015.2
8943.4 kPa | 1015
9220.4 kPa | 1015.3
9262.8 kPa | 1015.3
9305.7 kPa | 1015.3
9342.7 kPa | 1015.3
9387.2 kPa | 1015.4
9430.1 kPa | 1015.4
9462.8 kPa | 1015.5
9499 kPa | 1015.3
9535.2 kPa | 1015.5
9572.1 kPa | 1015.6
9751.4 kPa | 1015.7
9783.6 kPa | 1015.7
10212 kPa | 1016
10254 kPa | 1016.1
10297 kPa | 1016.1
10334 kPa | 1015.9
10376 kPa | 1016
10420 kPa | 1016.1
10456 kPa | 1016.3
10500 kPa | 1016.3
10816 kPa | 1016.5
10866 kPa | 1016.5
10904 kPa | 1016.5
11274 kPa | 1016.8
11884 kPa | 1017.2
11921 kPa | 1017.2
11965 kPa | 1017.2
12003 kPa | 1017.3
12047 kPa | 1017.3
12093 kPa | 1017.5
12139 kPa | 1017.3
12178 kPa | 1017.4
12224 kPa | 1017.5
12271 kPa | 1017.5
12318 kPa | 1017.5
14882 kPa | 1019.5
14925 kPa | 1019.6
14968 kPa | 1019.5
15004 kPa | 1019.4
15048 kPa | 1019.5
15500 kPa | 1019.8
15576 kPa | 1019.8
17833 kPa | 1021.6
19181 kPa | 1022.6
19261 kPa | 1022.5
22923 kPa | 1025
23811 kPa | 1025.7
23859 kPa | 1025.7
23900 kPa | 1025.7
23948 kPa | 1025.8
23996 kPa | 1025.8
24046 kPa | 1025.8
25712 kPa | 1027
25761 kPa | 1026.9
25802 kPa | 1027
25851 kPa | 1027.1
25900 kPa | 1027.1
25940 kPa | 1027.1
25989 kPa | 1027.1
26037 kPa | 1027.1
26087 kPa | 1027.3
26128 kPa | 1027.2
26178 kPa | 1027.4
26627 kPa | 1027.5
26673 kPa | 1027.6
26708 kPa | 1027.6
26751 kPa | 1027.6
26793 kPa | 1027.7
26835 kPa | 1027.8
26872 kPa | 1027.7
26914 kPa | 1027.8
